# Source: patent US6468992B1, “Phosphonic acid diester derivatives” (Otsuka Pharmaceutical Factory, Inc., priority 1998, dated 2002)
# Test system: male Wister rats
# Experiment: blood glucose-lowering activity in dexamethasone-treated rats
# Assay type: in vivo
# Details: male Wister rats given dexamethasone 0.5 mg/kg i.p. once a day for 4 days; test compound 100 mg/kg orally daily; serum glucose on day 4, 4 hours after dexamethasone, fasted 24 hours; versus control and normal groups
# Procedure: The compounds of the present invention were tested for blood glucose-lowering activities in rats in the following manner.
# That is, Dexamethasone (Decadron S injectable solution:made by Banyu Pharmaceutical Co.,Ltd.) was administered intraperitoneally to a group (test group) of 5 male Wister rats (6 weeks old) at a daily dose of 0.5 mg/kg, once a day for 4 days. Immediately after the administration of dexamethasone, a test compound (100 mg/kg) dissolved in 5% gum arabic solution was administered orally to rats daily. On day 4, the rats were decapitated 4 hours after the administration of dexamethasone. Blood was collected and centrifuged (3000 rpm, […], 15 minutes), then the glucose level in the obtained serum was measured by the use of Glucose cII Test Wako (made by Wako Pure Chemical Industries, Ltd.). The rats were maintained on a diet ad libitum and then fasted 24 hours before the collection of blood.
# Animals which were given 5% gum arabic solution instead of a test compound were served as a control group and those which were maintained merely on a diet ad libitum were served as a normal group. The serum glucose levels of them were measured according to the same manner as above. The decrease rate of blood glucose level was determined by the value (mean value) of each group from the following equation. [formula]
row,Structure (SMILES),Decrease rate (%) in blood glucose level [%]
1,"CCOP(=O)(CCCC(=O)Nc1cc(Cl)cc(Cl)c1C(=O)NC)OCC [Example 7, diethyl 3-[N-[3,5-dichloro-2-(N-methylcarbamoyl)phenyl]carbamoyl]propylphosphonate]",30
2,"CCOP(=O)(CCCC(=O)Nc1c(Cl)cc(Cl)cc1C(=O)NC)OCC [Example 8, diethyl 3-[N-[4,6-dichloro-2-(N-methylcarbamoyl)phenyl]-carbamoyl]propylphosphonate]",39
3,"CCOP(=O)(CCCC(=O)Nc1cccc(Cl)c1C(=O)Nc1ccccc1)OCC [Example 31, diethyl 3-[N-[3-chloro-2-(N-phenylcarbamoyl)phenyl]carbamoyl]propylphosphonate]",59
4,"CCOP(=O)(OCC)C(=O)Nc1cc(Cl)ccc1C(=O)NC [Example 51, Diethyl N-[5-chloro-2-(N-methylcarbamoyl)phenyl]carbamoyl phosphonate]",17
